From ChEMBL document CHEMBL6087415, “Discovery of new fungal jumonji H3K27 demethylase inhibitors for the treatment of Cryptococcus neoformans and Candida auris infections” (Eur J Med Chem, 2025)
≈ marks a conversion by molar mass, not a printed value. Calls of active or inactive are those of the source. The calls are words filed in the database; no cut-off is given here.

Assays:
[Candida] auris [1] = Antifungal activity against Candida auris 0029 assessed as reduction in fungal growth; type: functional; details: Candidozyma auris
Cryptococcus neoformans [2] = assay: Antifungal activity against Cryptococcus neoformans H99 assessed as reduction in fungal growth; type: functional
[Candida] auris [3] = Antifungal activity against Candida auris ATCC 15448 assessed as reduction in fungal growth; type: functional; details: Candidozyma auris
[4] = Cytotoxicity against HUVEC cells; type: toxicity, cell-based; details: human
[5] = Inhibition of Cryptococcus neoformans H99 JMJD3 by absorbance based analysis
Cryptococcus neoformans [6] = assay: Antifungal activity against Cryptococcus neoformans H99 assessed as reduction in fungal growth incubated for 72 hrs in presence of 80 uM Fe2+; type: functional
[Candida] auris [7] = Antibiofilm activity against Candida auris 0029 assessed as inhibition of biofilm formation at 64 microg/ml incubated for 24 hrs by XTT reduction assay; type: functional; details: Candidozyma auris
[Candida] auris [8] = Fungicidal activity against Candida auris 0029; type: functional; details: Candidozyma auris
[9] = Hemolytic activity in rabbit erythrocytes assessed as hemolysis at 10 to 100 uM relative to control; type: toxicity, cell-based, Oryctolagus cuniculus, Erythrocyte; details: dose 10-100 µM, read-out: Activity
[10] = Metabolic stability in mouse liver microsome assessed as half life; type: ADME; details: liver microsomes
Cryptococcus neoformans [11] = assay: Antifungal activity against Cryptococcus neoformans H99 assessed as reduction in fungal growth incubated for 72 hrs in presence of 40 uM Fe2+; type: functional
Cryptococcus neoformans [12] = assay: Antifungal activity against Cryptococcus neoformans H99 assessed as reduction in fungal growth incubated for 72 hrs in presence of 10 uM Fe2+; type: functional
Candida albicans = assay: Synergistic antifungal activity against Candida albicans assessed as inhibition of fungal growth incubated in presence of fluconazole; type: functional, organism-based
Cryptococcus neoformans [13] = assay: Fungicidal activity against Cryptococcus neoformans H99; type: functional
[Candida] auris [14] = Antifungal activity against Candida auris 0029 assessed as inhibition of cell growth at 16 microg/ml measured for 72 hrs; type: functional; details: Candidozyma auris
Cryptococcus neoformans [15] = assay: Antifungal activity against Cryptococcus neoformans H99 assessed as reduction in fungal growth incubated for 72 hrs in presence of 1 uM Fe2+; type: functional
[Candida] auris [16] = Synergistic antifungal activity against Candida auris 0029 assessed as inhibition of fungal growth incubated in presence of fluconazole; type: functional, organism-based; details: Candidozyma auris
Cryptococcus neoformans [17] = assay: Antifungal activity against Cryptococcus neoformans H99 assessed as inhibition of cell growth at 4 microg/ml measured for 72 hrs; type: functional, organism-based; details: dose 4.0 µg/ml
[18] = Solubility of compound in MeOH/H2O at pH 7 by HPLC analysis; type: physicochemical
Cryptococcus neoformans [19] = assay: Antibiofilm activity against Cryptococcus neoformans H99 assessed as inhibition of biofilm formation at 1 microg/ml incubated for 24 hrs by XTT reduction assay; type: functional, organism-based; details: dose 1.0 µg/ml
[20] = Metabolic stability in mouse liver microsome assessed as clearance; type: ADME; details: liver microsomes, read-out: CLH
Cryptococcus neoformans [21] = assay: Antifungal activity against Cryptococcus neoformans H99 assessed as reduction in fungal growth incubated for 72 hrs in presence of 5 uM Fe2+; type: functional
Cryptococcus neoformans [22] = assay: Antibiofilm activity against Cryptococcus neoformans H99 assessed as inhibition of capsule formation at 1 microg/ml incubated for 48 hrs by laser confocal microscopic analysis; type: functional, organism-based; details: dose 1.0 µg/ml
[Candida] auris [23] = Antibiofilm activity against Candida auris 0029 assessed as inhibition of biofilm formation upto […] microg/ml incubated for 24 hrs by XTT reduction assay; type: functional, organism-based; details: Candidozyma auris, dose <= 64.0 µg/ml
[24] = Inhibition of Candida auris 0029 JMJD3 by absorbance based analysis; parameters: species or system Candidozyma auris
Cryptococcus neoformans [25] = assay: Antifungal activity against Cryptococcus neoformans H99 assessed as reduction in fungal growth incubated for 72 hrs in presence of 20 uM Fe2+; type: functional
Cryptococcus neoformans [26] = assay: Antibiofilm activity against Cryptococcus neoformans H99 assessed as inhibition of biofilm formation upto […] microg/ml incubated for 24 hrs by XTT reduction assay; type: functional, organism-based; details: dose <= 64.0 µg/ml

## O=c1n(-c2ccccn2)c2ccccc2n1-c1ccc(Cl)cn1
[Candida] auris [1]
  MIC80: > 64 µg/mL
Cryptococcus neoformans [2]
  MIC80: 64 µg/mL (≈ 198 µM)
[Candida] auris [3]
  MIC80: > 64 µg/mL

## Clc1ccc(N/N=C(/c2ccc(Cl)cc2)c2ccccn2)cc1
[Candida] auris [1]
  MIC80: 64 µg/mL (≈ 187 µM)
Cryptococcus neoformans [2]
  MIC80: 32 µg/mL (≈ 93.5 µM)
[Candida] auris [3]
  MIC80: 64 µg/mL (≈ 187 µM)

## Fc1ccc(N/N=C(/c2ccccc2)c2ccccn2)cc1
[Candida] auris [1]
  MIC80: 64 µg/mL (≈ 220 µM)
Cryptococcus neoformans [2]
  MIC80: 32 µg/mL (≈ 110 µM)
[Candida] auris [3]
  MIC80: 32 µg/mL (≈ 110 µM)

## Clc1ccc(N/N=C(\c2ccccc2)c2ccccn2)nc1
[4]
  IC50: 79 nM
[5]
  IC50: 168 nM
Cryptococcus neoformans [6]
  MIC: 64 µg/mL
[Candida] auris [7]
  inhibition at 64 µg/mL: 100%
[Candida] auris [8]
  MFC: 256 µg/mL (≈ 829 µM)
[9]
  hemolysis at 100 µM: < 3%
[10]
  half-life: 34.3 min
Cryptococcus neoformans [11]
  MIC: 64 µg/mL
Cryptococcus neoformans [12]
  MIC: 8 µg/mL
Candida albicans
  Activity: inactive
Cryptococcus neoformans [13]
  MFC: 16 µg/mL (≈ 51.8 µM)
[Candida] auris [14]
  inhibition at 16 µg/mL: 100%
Cryptococcus neoformans [15]
  MIC: 1 µg/mL
[Candida] auris [16]
  Activity: inactive
Cryptococcus neoformans [17]
  Activity: Active
[Candida] auris [1]
  MIC80: 2 µg/mL (≈ 6.48 µM)
Cryptococcus neoformans [2]
  MIC80: 0.5 µg/mL (≈ 1.62 µM)
[Candida] auris [3]
  MIC80: 0.125 µg/mL (≈ 0.405 µM)
[18]
  solubility: 0.54 µg/mL (≈ 1.75 µM)
Cryptococcus neoformans [19]
  Activity: inactive
[20]
  CLint scaled: 159 mL/min/kg
Cryptococcus neoformans [21]
  MIC: 4 µg/mL
Cryptococcus neoformans [22]
  Activity: Active
[Candida] auris [23]
  Activity: Active
[24]
  IC50: 5 nM
Cryptococcus neoformans [25]
  MIC: 8 µg/mL
Cryptococcus neoformans [26]
  Activity: Active

## FC(F)(F)c1ccc(NN=C(c2ccccn2)c2ccccn2)cc1
[Candida] auris [1]
  MIC80: > 64 µg/mL
Cryptococcus neoformans [2]
  MIC80: 16 µg/mL (≈ 46.7 µM)
[Candida] auris [3]
  MIC80: > 64 µg/mL

## Cc1ccc(NC(=O)C(c2ccccc2)c2ccccn2)nc1 (stereo not given)
[Candida] auris [1]
  MIC80: > 64 µg/mL
Cryptococcus neoformans [2]
  MIC80: 32 µg/mL (≈ 105 µM)
[Candida] auris [3]
  MIC80: 64 µg/mL (≈ 211 µM)

## N#Cc1ccc(NN=C(c2ccccn2)c2ccccn2)nc1
[Candida] auris [1]
  MIC80: 2 µg/mL (≈ 6.66 µM)
Cryptococcus neoformans [2]
  MIC80: 0.5 µg/mL (≈ 1.66 µM)
[Candida] auris [3]
  MIC80: 0.125 µg/mL (≈ 0.416 µM)
[18]
  solubility: 3.93 µg/mL (≈ 13.1 µM)

## Clc1cccnc1N/N=C(\c1ccccc1)c1ccccn1
[Candida] auris [1]
  MIC80: 4 µg/mL (≈ 13 µM)
Cryptococcus neoformans [2]
  MIC80: 1 µg/mL (≈ 3.24 µM)
[Candida] auris [3]
  MIC80: 0.5 µg/mL (≈ 1.62 µM)

## Clc1ccc(N/N=C(\c2ccc(Cl)cc2)c2ccccn2)cc1
[Candida] auris [1]
  MIC80: > 64 µg/mL
Cryptococcus neoformans [2]
  MIC80: 32 µg/mL (≈ 93.5 µM)
[Candida] auris [3]
  MIC80: > 64 µg/mL

## O=c1c2ccccc2c(-c2ccccn2)nn1-c1ccc(Cl)cn1
[Candida] auris [1]
  MIC80: > 64 µg/mL
Cryptococcus neoformans [2]
  MIC80: 64 µg/mL (≈ 191 µM)
[Candida] auris [3]
  MIC80: > 64 µg/mL
